The source of these data is ChEMBL document CHEMBL1158260, “Six lignans from Phyllanthus myrtifolius” (J Nat Prod, 1996).

What is called IC50 is the concentration at which inhibition is half-maximal. The low end stands for higher potency, the high end for lower potency. As usually defined, the inhibition is the relative decrease from the control value, in per cent.

Experiment [1] concerns the target Human immunodeficiency virus type 1 reverse transcriptase (Human immunodeficiency virus 1) (UniProt Q72547). Kind of experiment: (§1) Inhibition of HIV1 reverse transcriptase.
The target is the same in experiment [2]. Kind of experiment: Increase in HIV1 reverse transcriptase activity at 18.9 uM relative to control.
Experiment [3] has the same target. As to the kind of experiment: Increase in HIV1 reverse transcriptase activity at 1.89 uM.
In experiment [4] the target is Human immunodeficiency virus type 1 reverse transcriptase (Human immunodeficiency virus 1, UniProt Q72547). The experiment is described as §1.
The nature of experiment [5]: Inhibition of human DNA polymerase alpha.
The target of experiment [6] is Human immunodeficiency virus type 1 reverse transcriptase (Human immunodeficiency virus 1) (UniProt Q72547). As to the kind of experiment: Inhibition of HIV1 reverse transcriptase at 10 uM.

Calls of active or inactive are those of the source. The calls are words filed in the database; no cut-off is given here.

In the case of `COc1cc2c(O[C@@H]3O[C@H](CO)[C@@H](O)[C@H](O)[C@H]3O)c(CO)c(CO)c(-c3ccc4c(c3)OCO4)c2cc1OC`, the outcome in experiment [1] was inactive.
For the compound `COc1cc2c(O[C@@H]3O[C@H](CO)[C@@H](O)[C@H](O)[C@H]3O)c(CO)c(C)c(-c3ccc4c(c3)OCO4)c2cc1OC`, the Activity was found to be 65% in experiment [2] and 210% in experiment [3].
In the case of `COc1cc(-c2c(C)c(CO)c(O[C@@H]3O[C@H](CO)[C@@H](O)[C@H](O)[C@H]3O)c3cc(OC)c(OC)cc23)ccc1O`, the outcome in experiment [1] was inactive.
Turning to `COCc1cc2cc(OC)c(OC)cc2c(-c2ccc3c(c2)OCO3)c1C=O` [PHYLLAMYRICIN B], the IC50 is 3.5 µM in experiment [4] and 289 µM in experiment [5].
The like results for `COc1cc2cc3c(c(-c4ccc5c(c4)OCO5)c2cc1OC)COC3=O` [RETROJUSTICIDIN B] were, in that order, 5.5 µM and 989 µM.
In experiment [6], `COc1cc2cc3c(c(-c4ccc5c(c4)OCO5)c2cc1OC)C(=O)OC3OC` (centres undefined) came in with an inhibition of 20%.
